# Patent US20070255061A1, “5-Fluoro-, Chloro-and Cyano-Pyridin-2-Yl-Tetrazoles as Ligands of the Metabotropic Glutamate Receptor-5” (AstraZeneca AB, priority 2003, published 2007)
# Experiments:
# [1] = Metabolic stability in pooled human liver microsomes; assay type: in vitro ADME; settings: for h.mic. FH (fraction escaping hepatic clearance): 1 μM compound, 0.5 mg microsomal protein/mL, 37° C., calculated from halflife, fu=1; for human microsomal metabolic stability (h.mic. FH) compared to the unsubstituted analog (Z=H): incubated with human microsomes
# Method: The compounds were incubated (at 1 μM) with characterized, pooled human liver microsomes (0.5 mg microsomal protein/mL incubation) at 37° C. in phosphate buffer (50 mM potassium phosphate, pH 7.4) The incubations were started by the addition of a cofactor (1 mM NADPH (Nicotinamide adenine dinucleotide phosphate in reduced form) and terminated by the addition of acetonitrile (1:1). The incubations were analyzed by LC/MS and a time curve for the disappearance of the parent compound was constructed. Control incubations without microsomes, or with acetonitrile addition before the addition of the cofactor, were used to check for non-enzymatic degradation/disappearance. […] The fraction escaping hepatic clearance, FH, given in %, was calculated from the hepatic clearance according to the following equation: [formula] Thus, the higher the FH, the more metabolically stable the compound. Solubility
# [2] = Aqueous solubility in 0.1 M phosphate buffer pH 7.4; assay type: physicochemical; settings: for solubility at 24 h: 21 °C, aqueous buffer, thermodynamic from solid, 0.1 M phosphate buffer, pH 7.4, 20 to 22° C., read-out: aq. Solubility
# Method: Duplicate of 1-2 mg of the test compound are incubated in 0.1 M phosphate buffer, pH 7.4, in 2 mL glass-vials on a plate bed shaker (IKA®-Schüttler MTS-4, IKA Labortechnik) at 300 rpm at a temperature of 20 to 22° C. for 24 hours. Non-dissolved material is centrifugated down from the saturated solution at 3000 rpm for 2×15 minutes at 22° C. (Multifuge® 3 S-R, Heraeus). The aqueous supernatant is transferred to glass-vials and aliquotes used for quantitative analysis using reversed HPLC with MS confirmation of compound identity. Quantification is performed by the UV-trace of the chromatogram against a calibration curve, 0-200 μM, of the test compound dissolved in DMSO at the wavelength of a positive inflection point of the UV spectrum. The reported values (aq. solubility) are the mean values of duplicate HPLC-analysis of two independent incubations.
# human mGluR5d = target: T1, human mGluR5d (Homo sapiens, UniProt P41594); test: FLIPR analysis of [Ca2+]i mobilization, antagonist activity; assay type: cell-based; settings: cells expressing human mGluR5d, read-out: IC50 mGluR5
# T1 construct: expressed in transfected cells; GHEK cells stably expressing the receptor are named only for the IP3 assay
# T1 sequence (P41594 21-942 isoform P41594-3 limits assumed): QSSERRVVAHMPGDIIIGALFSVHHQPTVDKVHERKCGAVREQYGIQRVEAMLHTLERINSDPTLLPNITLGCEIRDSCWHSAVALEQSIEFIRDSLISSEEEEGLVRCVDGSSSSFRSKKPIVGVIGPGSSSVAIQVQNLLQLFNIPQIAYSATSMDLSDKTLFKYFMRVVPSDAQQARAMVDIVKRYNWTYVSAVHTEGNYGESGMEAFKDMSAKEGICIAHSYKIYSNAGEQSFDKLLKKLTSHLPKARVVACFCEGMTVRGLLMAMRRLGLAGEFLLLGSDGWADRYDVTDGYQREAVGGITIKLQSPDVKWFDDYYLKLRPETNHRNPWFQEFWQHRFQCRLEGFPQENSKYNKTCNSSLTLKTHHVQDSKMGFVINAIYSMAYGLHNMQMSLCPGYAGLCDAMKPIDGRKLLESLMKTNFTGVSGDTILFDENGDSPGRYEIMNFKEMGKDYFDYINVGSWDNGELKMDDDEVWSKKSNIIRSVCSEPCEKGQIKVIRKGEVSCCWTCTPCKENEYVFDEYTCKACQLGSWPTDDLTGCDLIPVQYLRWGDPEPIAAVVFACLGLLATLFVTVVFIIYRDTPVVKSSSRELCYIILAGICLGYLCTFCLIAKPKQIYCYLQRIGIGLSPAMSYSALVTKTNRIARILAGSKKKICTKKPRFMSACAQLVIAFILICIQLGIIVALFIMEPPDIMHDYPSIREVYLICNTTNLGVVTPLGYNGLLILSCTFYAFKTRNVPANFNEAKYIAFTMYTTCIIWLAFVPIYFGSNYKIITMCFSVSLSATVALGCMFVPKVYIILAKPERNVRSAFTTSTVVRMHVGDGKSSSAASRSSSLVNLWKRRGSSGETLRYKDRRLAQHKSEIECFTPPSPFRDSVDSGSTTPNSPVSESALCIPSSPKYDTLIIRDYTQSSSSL
# Method: FLIPR experiments were done using a laser setting of 0.800 W and a 0.4 second CCD camera shutter speed. Each FLIPR experiment was initiated with 160 μl of buffer present in each well of the cell plate. After each addition of the compound, the fluorescence signal was sampled 50 times at 1 second intervals followed by 3 samples at 5 second intervals. Responses were measured as the peak height of the response within the sample period. EC50 and IC50 determinations were made from data obtained from 8-point concentration response curves (CRC) performed in duplicate. Agonist CRC were generated by scaling all responses to the maximal response observed for the plate. Antagonist block of the agonist challenge was normalized to the average response of the agonist challenge in 14 control wells on the same plate.
# Cell cultures in the 96-well plates were loaded with a 4 μM solution of acetoxymethyl ester form of the fluorescent calcium indicator fluo-3 (Molecular Probes, Eugene, Oreg.) in 0.01% pluronic.
# Each FLIPR experiment was initiated with 160 μl of buffer present in each well of the cell plate. […] After each addition the fluorescence signal was sampled 50 times at 1 second intervals followed by 3 samples at 5 second intervals. Responses were measured as the peak height of the response within the sample period. […]
SMILES,h.mic. FH (fraction escaping hepatic clearance) [1],human microsomal metabolic stability (h.mic. FH) compared to the unsubstituted analog (Z=H) [1],solubility at 24 h [2],increase in solubility compared to the corresponding bromo derivative (Z=Br) ([2]; aq. solubility),IC50 (human mGluR5d)
N#Cc1cc(F)cc(-n2nnc(-c3ccc(F)cn3)n2)c1 [3-Fluoro-5-[5-(5-fluoropyridin-2-yl)-2H-tetrazol-2-yl]benzonitrile],71%,significantly more stable,4.3 µM,22 fold,–
N#Cc1cc(F)cc(-n2nnc(-c3ccccn3)n2)c1 [3-fluoro-5-(5-pyridin-2-yl-2H-tetrazol-2-yl)benzonitrile],10%,–,43 µM,–,12 nM
N#Cc1cc(F)cc(-n2nnc(-c3ccc(Br)cn3)n2)c1 [3-[5-(5-bromopyridin-2-yl)-2H-tetrazol-2-yl]-5-fluorobenzonitrile],92%,significantly higher human metabolic stability,0.2 µM,–,–
